Source: patent publication US6271342A, “Sugar-modified cytostatics” (Bayer Aktiengesellschaft, priority 1995, dated 2001)
In brackets after ≈: the same amount, converted by molar mass. Like-named read-outs stand apart in the source and are kept apart here.

How the values were obtained:
[1] = system: B 16 F 10; assay: Growth inhibition test (MTT) for cytotoxic properties; assay type: cell-based, mouse; conditions: Table 1b
Outline: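 Cells in RPMI 1640 with 10% FCS pre-cultured 1 day at 37° C, then exposed to test substances in DMSO; growth checked after day 3 and day 6. Read-out by MTT, 5 h incubation, isopropanol solubilization, extinction at 540 nm.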

[2] = Cleavage kinetics with human blood (HPLC); assay type: in vitro ADME; conditions: 37° C.
Excerpt: In Vitro Investigation of the Cleavability of the Glycoconjugates
Cleavage Kinetics With Human Blood

[3] = system: bone marrow parent cells of the mouse; assay: CSF-induced proliferation of bone marrow parent cells, in vitro; assay type: cell-based; conditions: recombinant murine GM-CSF, 7 days
Method: Bone marrow cells are flushed out of the femur of mice. 10^5 cells are incubated in McCoy SA medium (0.3% agar) together with recombinant murine GM-CSF (Genzyme; parent cell colony formation) and the substances (10^-4 to 100 μg/ml) at 37° C. and 7% CO2. 7 days later, the colonies ([…]) and clusters (17-50 cells) are counted.

[4] = system: HT 29; assay: Two-layer soft agar culture of human tumour xenografts; assay type: cell-based; conditions: T/C ≤30%
Method: (§1) The in vitro activity of glycoconjugates of quinolone-a was determined on human tumour xenografts in a two-layer soft agar culture system according to Hamburger and Salmon (Science 197: 461-463).
(§2) The solid tumours were initially grown in the athymic naked mouse (NMRI nu/nu), obtained by surgery and comminuted mechanically. Individual cells were then obtained by incubation in an enzyme mixture of collagenase 0.05%, DNAse 0.07% and hyaluronidase 0.1% in RPMI at 37° C. for 30 minutes. The cells were washed 2× and then passed through a sieve of 200 μm and 20 μm mesh width.
(§3) The base layer comprises 0.2 ml of Iscoves's Modified Dulbeccos Medium with 20% foetal calf serum and 0.7% agar. 40,000 to 200,000 cells in 0.2 ml of the same medium and 0.4% agar were applied to this layer in 24 multiwell plates. The cytostatic substances were added in 0.2 ml of medium.
(§4) The cultures were incubated at 37° C. in a 7% CO2 atmosphere for 6 to 15 days. The colonies which had grown were then counted under an inverting microscope, the living colonies being stained with a tetrazolium chloride dyestuff 24 hours before the evaluation.
(§5) The effect of the active compound is expressed in per cent of surviving colonies compared with the colony count of untreated plates (T/C=colony count treated×100/control count untreated).
(§6) A substance is active if the T/C value is ≤30%.
(§7) This value is shown as the IC70 value in μg/ml in Table 8.

[5] = system: OVXF 1023; assay: as above; assay type: cell-based; conditions: T/C ≤30%
Method: as §1, §2, §3, §4, §5, §6, §7

[6] = system: CXF 280; assay: as above; assay type: cell-based; conditions: T/C ≤30%
Method: as §1, §2, §3, §4, §5, §6, §7

[7] = system: MEXF 989; assay: as above; assay type: cell-based; conditions: T/C ≤30%
Method: as §1, §2, §3, §4, §5, §6, §7

[8] = system: SW 480; assay: as above; assay type: cell-based; conditions: T/C ≤30%
Method: as §1, §2, §3, §4, §5, §6, §7

[9] = system: OVXF 899; assay: as above; assay type: cell-based; conditions: T/C ≤30%
Method: as §1, §2, §3, §4, §5, §6, §7

[10] = system: LXFL 529; assay: as above; assay type: cell-based; conditions: T/C ≤30%
Method: as §1, §2, §3, §4, §5, §6, §7

[11] = system: LXFS 538; assay: as above; assay type: cell-based; conditions: T/C ≤30%
Method: as §1, §2, §3, §4, §5, §6, §7

[12] = system: HT 29; assay: Growth inhibition test (MTT) for cytotoxic properties; assay type: cell-based, human
Outline: (§8)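 SW 480 and HT 29 cells in RPMI 1640 with 10% FCS were seeded at 50,000 cells/ml, grown 1 day at 37 °C, then exposed to compound added in DMSO. MTT (5 mg/ml stock) was applied after day 3 and day 6 for 5 h, and formazan absorbance was read at 540 nm. IC50 values reported.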

[13] = system: SW 480; assay: as above; assay type: cell-based, human
Outline: as §8

[14] = system: SW-480
Method: Cleavage Kinetics With Cells
(§9) 2.25 ml of PBS are incubated together with 225 μl of a cell suspension (30 mg/ml) and 25 μl of substrate stock solution (1 mg/ml in 3% dimethyl sulphoxide in PBS) at 37° C. After 1 hour and 24 hours, samples of in each case 1 ml are taken, mixed with 1 ml of ethanol and left to stand at 4° C. for 20 minutes. After centrifugation (5 minutes at 3500 rpm), 100 μl of supernatant are taken for the HPLC analysis.

[15] = system: hepatoma
Method: Cleavage Kinetics With Cells
as §9

[16] = Acute toxicity, single administration; assay type: in vivo, nu/nu naked mice; conditions: for acute toxicity detected: dose of 400 mg/kg; for acute toxicity detected / individual dose of the substances which can be tolerated: single administration; for Individual dose tolerated in mg/kg of mouse, i.v.: aqueous solution; for Individual dose tolerated in mg/kg of mouse, i.p.: single administration i.p., solution in dimethyl sulphoxide
Method: Determination of the Acute Toxicity of Glycoconjugates of Batracyline (Single Administration)
The acute toxicity of the batracyline derivatives was determined on nu/nu naked mice.
The substances administered i.v., as aqueous solutions, and the substances administered i.p., as solutions in dimethyl sulphoxide, were injected once in concentrations of up to 400 mg of substance per kg of mouse.
The individual dose tolerated was calculated from the decrease in the weight of the animals up to 21 days after administration and from the number of animals surviving.

[17] = system: hepatoma; assay: Cleavage kinetics with cells (HPLC); conditions: Table 2a; 37° C.; * = cleavage product is N-[D-alanyl]-batracyline
Method: Cleavage Kinetics With Cells
as §9

[18] = system: SW-480; assay: Cleavage kinetics with cells (HPLC); conditions: Table 2a; 37° C.; * = cleavage product is N-[D-alanyl]-batracyline
Method: Cleavage Kinetics With Cells
as §9

[19] = Table 1a, glycoconjugates of batracyline
[20] = Table 2a, * = cleavage product is N-[D-alanyl]-batracyline

Compound	IC50 [1] [µM]	% cleavage in human blood 1 hour ([2]; Table 2b) [%]	% cleavage in human blood 24 hours ([2]; Table 2b) [%]	IC50 [μg/ml] CSF-induced proliferation of bone marrow parent cells of the mouse [3] [µg/mL]	IC50 ([12]; Table 1b) [µM]	IC50 ([13]; Table 1b) [µM]	% cleavage in SW-480 1 hour [14] [%]	% cleavage in SW-480 24 hours [14] [%]	% cleavage in hepatoma 1 hour [15] [%]	% cleavage in hepatoma 24 hours [15] [%]	IC50 [12, 19] [µM]	IC50 [13, 19] [µM]	individual dose of the substances which can be tolerated [16]	Individual dose tolerated in mg/kg of mouse, i.v. ([16]; single administration i.v.)	% cleavage in hepatoma 1 hour [17] [%]	% cleavage in hepatoma 24 hours [17] [%]	% cleavage in SW-480 1 hour [18] [%]	% cleavage in SW-480 24 hours [18] [%]	Individual dose tolerated in mg/kg of mouse, i.p. [16]	further results
COC1C(O)C(C)OC(Oc2ccc(NC(=S)NCCCCC(NC(=S)Nc3ccc(OC4OC(C)C(O)C(OC)C4O)cc3)C(=O)NC3C=CCC4CN(c5c(F)cc6c(=O)c(C(=O)O)cn(C7CC7)c6c5Cl)CC43)cc2)C1O (mixture of isomers) [Example 11.7, N-{N^α,N^ε -Bis-[O-(3--methyl-β-L-fucosyl)-4-hydroxy-phenylamino-thiocarbonyl]-D -lysyl}-quinolone-a]	15	0	0	2.9	13	12	0	0	0	0										IC70 /μg/ml [4]: 56 µg/mL; IC70 /μg/ml [5]: 136 µg/mL; IC70 /μg/ml [6]: > 100 µg/mL; IC70 /μg/ml [7]: 3 µg/mL; IC70 /μg/ml [8]: 18 µg/mL; IC70 /μg/ml [9]: 234 µg/mL; IC70 /μg/ml [10]: 4 µg/mL; IC70 /μg/ml [11]: 18 µg/mL
COC1C(O)C(C)OC(Oc2ccc(NC(=S)NC(CCCCN)C(=O)NC3C=CC(C)C4CN(c5cc6c(cc5F)c(=O)c(C(=O)O)c5scc(C)n56)CC34)cc2)C1O.Cl (mixture of isomers) [Example 14.4, N-{N^α -[O-(3-O-Methyl-β-L-fucopyranosyl)-4-hydroxy-phenylamino-thiocarbonyl]-D-lysyl}-quinolone-c, hydrochloride]	0.4			3.6	1	1.5														
CC(NC(=O)C(CCCCNC(=S)Nc1ccc(OC2OC(C)C(O)C(OCC(=O)[O-])C2O)cc1)NC(=S)Nc1ccc(OC2OC(C)C(O)C(OCC(=O)[O-])C2O)cc1)C(=O)Nc1ccc2nc3n(c(=O)c2c1)Cc1ccccc1-3.[Na+].[Na+] [Example 6.12, N-{N^α,N^ε -Bis-[O-(3-O-carboxymethyl-β-L-fucosyl)-4-hydroxy-phenylamino-thiocarbonyl]-lysyl-D-alanyl}-batracyline, di-sodium salt]											50	35	more than 200 mg of substance per kg of mouse	> 400 mg/kg of mouse	0	0	0	0		acute toxicity detected [16]: no acute toxicity
CO[C@H]1[C@H](O)[C@@H](Oc2ccc(NC(=S)NCCCC[C@H](NC(=S)Nc3ccc(O[C@H]4O[C@@H](C)[C@@H](O)[C@@H](OC)[C@@H]4O)cc3)C(=O)N[C@@H](C)C(=O)NC3C=CCC4CN(c5c(F)cc6c(=O)c(C(=O)O)cn(C7CC7)c6c5Cl)CC43)cc2)O[C@@H](C)[C@H]1O (stereo partly drawn) [Example 11.2, N-{N^α,N^ε -Bis-[O-(3-O-methyl-β-L-fucosyl)-4-hydroxy-phenylamino-thiocarbonyl]-lysyl-alanyl}-quinolone-a]	9	0	0	22.5		30	0	0	0	0										
CO[C@H]1[C@H](O)[C@@H](Oc2ccc(NC(=S)NCCCC[C@H](NC(=S)Nc3ccc(O[C@H]4O[C@@H](C)[C@@H](O)[C@@H](OC)[C@@H]4O)cc3)C(=O)NC3C=CCC4CN(c5c(F)cc6c(=O)c(C(=O)O)cn(C7CC7)c6c5Cl)CC43)cc2)O[C@@H](C)[C@H]1O (stereo partly drawn) [Example 11.6, N-{N^α,N^ε -Bis-[O-(3-O-methyl-β-L-fucosyl)-4-hydroxy-phenylamino-thiocarbonyl]-lysyl}-quinolone-a]	5	0	11		9	8	0	8	0	12										
COC1C(O)C(C)OC(Oc2ccc(NC(=S)NC(CCCCN)C(=O)NC3C=CCC4CN(c5c(F)cc6c(=O)c(C(=O)O)cn(C7CC7)c6c5Cl)CC43)cc2)C1O [Example 12.5, N-{N^α -[O-(3-O-Methyl-β-L-fucosyl)-4-hydroxy-phenylamino-thiocarbonyl]-lysyl}-quinolone-a]	0.2				4	1														IC70 /μg/ml [4]: 11 µg/mL (≈ 12.8 µM); IC70 /μg/ml [5]: 9 µg/mL (≈ 10.5 µM); IC70 /μg/ml [6]: < 0.3 µg/mL; IC70 /μg/ml [7]: 0.5 µg/mL (≈ 0.583 µM); IC70 /μg/ml [8]: 10 µg/mL (≈ 11.7 µM); IC70 /μg/ml [9]: 55 µg/mL (≈ 64.1 µM); IC70 /μg/ml [10]: 2 µg/mL (≈ 2.33 µM); IC70 /μg/ml [11]: < 0.3 µg/mL
N-{N^α -[O-(4-O-Methyl-β-L-fucosyl)-4-hydroxy-phenylamino-thiocarbonyl]-lysy l-D-alanyl}-batracyline [Example 4.4]							0	0	0	0	25	30								% cleavage in human blood 1 hour [2, 20]: 0%; % cleavage in human blood 24 hours [2, 20]: 0%
N-{N^α,N^ε -Bis-[O-(3-O-methyl-β-L-fucosyl)-4-hydroxy-phenylamino-thiocarbonyl]- lysyl-D-alanyl}-batracyline [Example 6.2]											50	40	more than 200 mg of substance per kg of mouse		0	0	0	0	> 400 mg/kg of mouse	acute toxicity detected [16]: no acute toxicity
N-{N^ε -[O-(3-O-Carboxymethyl-β-L-fucosyl)-4-hydroxy-phenylamino-thiocarbony l]-lysyl-D-alanyl}-batracyline, sodium salt [Example 3.9]											55	40	more than 200 mg of substance per kg of mouse	200 mg/kg of mouse	32	100	28	100	200 mg/kg of mouse	% cleavage in human blood 1 hour [2, 20]: 0%; % cleavage in human blood 24 hours [2, 20]: 54%
N-{N^ε -[O-(3-O-Methyl-β-L-fucosyl)-4-hydroxy-phenylamino-thiocarbonyl]-lysy l-D-alanyl}-batracyline, trifluoroacetate [Example 3.4]											65	100		< 100 mg/kg of mouse	98		74		200 mg/kg of mouse	animals died ([16]; single administration i.v.): 2
